Test results from patent US12178790B2, “Antibacterial compound isolated from Psiloxylon mauritianum and its derivatives” (CENTRE NATIONAL DE LA RECHERCHE SCIENTIFIQUE(CNRS), priority 2021, dated 2024).
Converted amounts (≈) assume the structure as drawn. Read-outs that look alike come from different tables or passages of the source.

How the values were obtained:
[1] = test system: Trichophyton rubrum (SNB-TR1); experiment: MIC determination (microdilution), T. rubrum; format: cell-based; settings: for MIC: Trichophyton rubrum, 120 h
Experimental: (§1) The crude extract and pure compounds isolated were tested against human pathogenic microorganisms, including the bacterium Staphylococcus aureus (ATCC 29213), MRSA (ATCC 33591), Candida albicans (ATCC 10213), Trichophyton rubrum (SNB-TR1) and P. aeruginosa ATCC 27853 to screen their antibacterial and antifungal activities. All ATCC strains were purchased from the Pasteur Institute. The clinical isolate was provided by Prof. Philippe Loiseau, Université Paris Sud. The ITS sequence was deposited in the NCBI GenBank database under the registry number KC692746 corresponding to SNB-TR1 strain. The tests were conducted in accordance to the reference protocols from the European Committee on Antimicrobial Susceptibility Testing. The standard microdilutions, ranging from 256 to 0.25 μg/mL were made from stock solutions prepared in DMSO (Sigma-Aldrich, France). The microplates were incubated at 35° C., and MIC values were obtained after 48 h for C. albicans, 24 h for S. aureus and 5 days for T. rubrum. The MIC values reported in Table 2 refer to the lowest concentration preventing visible growth in the wells. Vancomycin (Sigma-Aldrich, Saint-Quentin Fallavier, France) and oxacillin (Sigma-Aldrich, Saint-Quentin Fallavier, France) were used as positive controls for bacteria. Fluconazole (Sigma-Aldrich, Saint-Quentin Fallavier, France) and itraconazole (Sigma-Aldrich, Saint-Quentin Fallavier, France) were used as positive controls for fungi. All assays were conducted in duplicate.

[2] = test system: Human lung fibroblast cells (MRC-5); experiment: Cytotoxicity evaluation, MTS assay; format: cell-based
Experimental: (§2) Human lung fibroblast cells (MRC-5) were purchased from ATCC (Rockville, Md., USA) and cultured as recommended. Cell growth inhibition was determined by an MTS assay according to the manufacturer's instructions (Promega, Madison, Wis., USA). The cells were seeded in 96-well plates containing the growth medium. After 24 h of culture, samples were dissolved in DMSO (Sigma-Aldrich, France), and added to the cells (at 1 and 10 μM final concentrations). After 72 h of incubation, the reagent was added, and the absorbance at 490 nm was recorded using a plate reader. Cell viability was evaluated in comparison with untreated control cultures. Docetaxel (Taxotere) was used as positive control (IC50: 0.5 nM). All assays were conducted in triplicate.

[3] = test system: Candida albicans (ATCC 10213); experiment: MIC determination (microdilution), C. albicans; format: cell-based; settings: for MIC: Candida albicans, ATCC10213
Experimental: as §1

[4] = test system: Staphylococcus aureus (ATCC 29213); experiment: MIC determination (microdilution), S. aureus; format: cell-based; settings: for MIC: Staphylococcus aureus, ATCC29213
Experimental: as §1

[5] = test system: MRSA (ATCC 33591); experiment: MIC determination (microdilution), MRSA; format: cell-based, Staphylococcus aureus; settings: for MIC: Staphylococcus aureus, read-out: MIC MRSA ATCC 33591
Experimental: as §1

[6] = test system: Bacillus sp. L4 210321 (clinical strain); experiment: MIC against Gram-positive bacteria; format: cell-based
[7] = test system: S. aureus ATCC25923; experiment: MIC against Gram-positive bacteria; format: cell-based; settings: Staphylococcus aureus
[8] = Cytotoxicity evaluation, MTS assay; format: cell-based; settings: human, MRC-5 human lung fibroblast cells, 72 h, read-out: MRC5 Cell Viability
Experimental: as §2

[9] = test system: S. epidermis MSF G + 15 (clinical strain); experiment: MIC against Gram-positive bacteria; format: cell-based
[10] = test system: Escherichia coli WT 25922; experiment: MIC against Gram-negative bacteria, alone or in combination with colistin; format: cell-based
Experimental: as §1
(§3) Permeabilizers are compounds that weaken the outer membrane by enhance the permeability of bacterial cells to antimicrobial agents. [Farrag, H. A.; Abdallah, N.; Shehata, M. M. K.; Awad, E. M. J Biomed Sci, 2019, 26:69] Colistin a.k.a. polymyxin E were extensively used in clinical practice for Gram-negative organisms, but gradually withdrawn from the market due to reports of significant nephrotoxicity and neurotoxicity. [Mohamed, Y. F., Abou-Shleib, H. M., Khalil, A. M., El-Guink, N. M., & El-Nakeeb, M. A. Braz J Microbiol., 2016, 47, 381-388] In combinaison with various antibiotics, colistin is known to destabilize the outer membrane enhancing the antibacterial activity. In our study, we evaluated a combinaison of colistin at a sub-inhibitory concentration and Aspidin CB. […] (Table 5)

[11] = test system: Acinetobacter baummanii 19606; experiment: as above; format: cell-based
Experimental: as §1, §3

[12] = test system: Corynebacterium sp. L2 220321 (clinical strain); experiment: MIC against Gram-positive bacteria; format: cell-based
[13] = test system: Enterococcus faecalis 29212; experiment: MIC against Gram-positive bacteria; format: cell-based
[14] = test system: S. epidermis MSF G + 16 (clinical strain); experiment: MIC against Gram-positive bacteria; format: cell-based
[15] = test system: Enterococcus faecium SI299 (clinical strain); experiment: MIC against Gram-positive bacteria; format: cell-based
[16] = test system: SARM NCTC 12493; experiment: MIC against Gram-positive bacteria; format: cell-based; settings: Staphylococcus aureus, NCTC12493
[17] = test system: SARM G + 79 (clinical strain); experiment: MIC against Gram-positive bacteria; format: cell-based; settings: Staphylococcus aureus
Experimental: as §1

[18] = test system: SARM G + 82 (clinical strain); experiment: MIC against Gram-positive bacteria; format: cell-based; settings: Staphylococcus aureus
Experimental: as §1

[19] = test system: SARM G + 86 (clinical strain); experiment: MIC against Gram-positive bacteria; format: cell-based; settings: Staphylococcus aureus
Experimental: as §1

[20] = test system: SARM G + 78 (clinical strain); experiment: MIC against Gram-positive bacteria; format: cell-based; settings: Staphylococcus aureus
Experimental: as §1

[21] = test system: Enterococcus faecium van B (clinical strain); experiment: MIC against Gram-positive bacteria; format: cell-based
[22] = ABTS radical scavenging (antioxidant) assay; format: biochemical; settings: at 50 μg/ml
Excerpt: P. mauritianum extracts were investigated for their antioxidant activities with using an ABTS [2,2′-azinobis-(3-ethylbenzothiazoline-6-sulfonate)] assay.

[23] = human pathogenic fungi, in words
[24] = colistin at sub-inhibitory concentration, in words

**Q.** With `CCCC(=O)C1=C(O)C(Cc2c(O)c(C)c(OC)c(C(=O)CCC)c2O)=C(O)C(C)(C)C1=O` [Compound 1, Aspidin BB] as the molecule, how does the “MIC T. rubrum SNB-TR1” value ([1]; Table 6, 5 days) read?
**A.** >256 µg/mL

**Q.** What about the “Antifungal activity against T. rubrum” value [1, 23] of the same molecule?
**A.** inactive

**Q.** And the “MRC5 Cell Viability” value ([2]; 10^−5 M, 72 h)?
**A.** 86 ± 3%

**Q.** What about the “MRC5 Cell Viability” value ([2]; 10^−6 M, 72 h) of the same molecule?
**A.** 104 ± 1%

**Q.** And the “MIC C. albicans ATCC 10213” value ([3]; Table 6, 48 h)?
**A.** >256 µg/mL

**Q.** What about the “Antifungal activity against C. albicans” value [3, 23] of the same molecule?
**A.** inactive

**Q.** And the “MIC S. aureus ATCC 29213” value ([4]; Table 6 and text, 24 h)?
**A.** 2 µg/mL (≈ 4.34 µM)

**Q.** And the “Antibacterial activity against S. aureus” value ([4]; in words)?
**A.** strongly active

**Q.** And the “MIC MRSA ATCC 33591” value ([5]; Table 6 and text)?
**A.** 1 µg/mL (≈ 2.17 µM)

**Q.** What about the “Antibacterial activity against MRSA” value ([5]; in words) of the same molecule?
**A.** strongly active

**Q.** What does the source list for `CCCCCC(=O)C1=C(O)C(C)(C)C(O)=C(Cc2c(O)c(C)c(OC)c(C(=O)CCC)c2O)C1=O` [Compound 2, Aspidin CB]?
**A.** MIC ([1]; Table 6, 5 days): 256 µg/mL (≈ 524 µM); MIC [6]: 1 µg/mL (≈ 2.05 µM); MIC [7]: 0.5 µg/mL (≈ 1.02 µM); viability at 72 h ([8]; 10^−5 M): 99 ± 2%; viability at 72 h ([8]; 10^−6 M): 105 ± 2%; Cytotoxicity in MRC5 cells ([2]; at 10^−5 M, in words): no cytotoxicity was observed; MIC ([3]; Table 6, 48 h): > 256 µg/mL; Fold stronger activity of compound 2 vs compound 1 on S. aureus strains ([4]; S. aureus and MRSA, ratio of MICs): 4-to 8 fold; MIC ([4]; Table 6 and text, 24 h): 0.25 µg/mL (≈ 0.512 µM); MIC ([5]; Table 6 and text): 0.25 µg/mL (≈ 0.512 µM); Fold more potent than vancomycin against MRSA ([5]; ratio of MICs): 16 fold; MIC [9]: 0.5 µg/mL (≈ 1.02 µM); MIC ([10]; Escherichia coli, WT25922, single agent): > 64 µg/mL; Activity against E. coli in combination with colistin vs alone [10, 24]: unambiguously more active; MIC ([11]; Acinetobacter, 19606, single agent): > 64 µg/mL; Activity against A. baumanii in combination with colistin vs alone [11, 24]: unambiguously more active; MIC [12]: 1 µg/mL (≈ 2.05 µM); MIC [13]: 8 µg/mL (≈ 16.4 µM); MIC [14]: 2 µg/mL (≈ 4.09 µM); MIC [15]: 8 µg/mL (≈ 16.4 µM); MIC [16]: 0.5 µg/mL (≈ 1.02 µM); MIC [17]: 1 µg/mL (≈ 2.05 µM); MIC [18]: 0.5 µg/mL (≈ 1.02 µM); MIC [19]: 0.5 µg/mL (≈ 1.02 µM); MIC [20]: 0.5 µg/mL (≈ 1.02 µM); MIC [21]: 0.5 µg/mL (≈ 1.02 µM)

**Q.** With `CC(=O)O[C@@]12CO[C@@H]1C[C@H](O)[C@@]1(C)C(=O)[C@H](O)C3=C(C)[C@@H](OC(=O)[C@H](O)[C@@H](NC(=O)OC(C)(C)C)c4ccccc4)C[C@@](O)([C@@H](OC(=O)c4ccccc4)[C@H]21)C3(C)C` [Docetaxel, reference compound] as the molecule, how does the IC50 ([2]; Homo sapiens, MRC5, positive control, 72 h, read-out: IC50 cell growth inhibition MRC-5) read?
**A.** 0.5 nM

**Q.** Which results are given for `OC(Cn1cncn1)(Cn1cncn1)c1ccc(F)cc1F` [Fluconazole, reference compound]?
**A.** MIC ([1]; Table 6, 5 days): 4 µg/mL (≈ 13.1 µM); MIC ([3]; Table 6, 48 h): 1 µg/mL (≈ 3.27 µM)

**Q.** Which MIC ([1]; Table 6, 5 days) does the source give for `CCC(C)n1ncn(-c2ccc(N3CCN(c4ccc(OCC5COC(Cn6cncn6)(c6ccc(Cl)cc6Cl)O5)cc4)CC3)cc2)c1=O` (centres unmarked) [Itraconazole, reference compound] here?
**A.** < 0.5 µg/mL

**Q.** And the MIC ([3]; Table 6, 48 h)?
**A.** < 0.5 µg/mL

**Q.** For `Cc1onc(-c2ccccc2)c1C(=O)N[C@@H]1C(=O)N2[C@@H]1SC(C)(C)[C@@H]2C(=O)O` [Oxacillin, reference compound], which MIC ([4]; Table 6 and text, 24 h) is on record?
**A.** 0.25 µg/mL (≈ 0.623 µM)

**Q.** For `Cc1c(C)c2c(c(C)c1O)CCC(C)(C(=O)O)O2` (centres unmarked) [Trolox], which “% ABTS inhibition” value [22] is on record?
**A.** 98.0%

**Q.** Which MIC [5] does the source give for `CN[C@H](CC(C)C)C(=O)N[C@H]1C(=O)N[C@@H](CC(N)=O)C(=O)N[C@H]2C(=O)N[C@H]3C(=O)N[C@H](C(=O)N[C@H](C(=O)O)c4cc(O)cc(O)c4-c4cc3ccc4O)[C@H](O)c3ccc(c(Cl)c3)Oc3cc2cc(c3O[C@@H]2O[C@H](CO)[C@@H](O)[C@H](O)[C@H]2O[C@H]2C[C@](C)(N)[C@H](O)[C@H](C)O2)Oc2ccc(cc2Cl)[C@H]1O` [Vancomycin, reference compound] here?
**A.** 4 µg/mL (≈ 2.76 µM)

**Q.** For Colistin [reference compound], which “MIC Escherichia coli WT 25922” value ([10]; single agent) is on record?
**A.** 1 µg/mL

**Q.** And the “MIC Acinetobacter baummanii 19606” value ([11]; single agent)?
**A.** 4 µg/mL

**Q.** With Tocopherol as the molecule, how does the “% ABTS inhibition” value [22] read?
**A.** 97.6%
